# ChEMBL document CHEMBL3580560, “Isolation, Structural Modification, and HIV Inhibition of Pentacyclic Lupane-Type Triterpenoids from Cassine xylocarpa and Maytenus cuzcoina” (J Nat Prod, 2015)
# System: Human immunodeficiency virus 1
# Experiment: Antiviral activity against HIV1 NL4.3-Ren infected in human MT2 cells assessed as inhibition of viral growth at 10 uM measured 48 hrs post infection by luminometry
# Type: functional
# Conditions: Human immunodeficiency virus 1, NL4.3-Ren, MT2, 48 h
row,Compound,inhibition at 10 µM
1,C=C(C)[C@@H]1CC[C@]2(C)CC[C@]3(C)[C@H](CC[C@@H]4[C@@]5(C)CCC(=O)C(C)(C)[C@@H]5CC[C@]43C)[C@@H]12 [LUPENONE],< 50%
2,C=C(C)[C@@H]1CC[C@]2(CO)CC[C@]3(C)[C@H](CC[C@@H]4[C@@]5(C)CC[C@H](O)C(C)(C)[C@@H]5CC[C@]43C)[C@@H]12 [BETULIN],< 50%
3,C=C(CCl)[C@@H]1CC[C@]2(C)CC[C@]3(C)[C@H](C[C@@H](OC(C)=O)[C@@H]4[C@@]5(C)C=CC(=O)C(C)(C)[C@@H]5CC[C@]43C)[C@@H]12,< 50%
4,C=C(C)[C@@H]1CC[C@]2(COC(=O)CCCCCCC)CC[C@]3(C)[C@H](CC[C@@H]4[C@@]5(C)CC[C@H](OC(=O)CCCCCCC)C(C)(C)[C@@H]5CC[C@]43C)[C@@H]12,< 50%
5,C=C(C)[C@@H]1CC[C@]2(C)CC[C@]3(C)[C@H](CC[C@@H]4[C@@]5(C)CC[C@H](O)C(C)(C)[C@@H]5CC[C@]43C)[C@@H]12 [LUPEOL],< 50%
6,CC(C)(O)[C@@H]1CC[C@]2(C)CC[C@]3(C)[C@H](CC[C@@H]4[C@@]5(C)CC[C@H](O)C(C)(C)[C@@H]5[C@H](O)C[C@]43C)[C@@H]12,< 50%
7,C=C(C)[C@@H]1CC[C@]2(COS(=O)(=O)c3ccc(C)cc3)CC[C@]3(C)[C@H](CC[C@@H]4[C@@]5(C)CC[C@H](O)C(C)(C)[C@@H]5CC[C@]43C)[C@@H]12,< 50%
8,C=C(C)[C@@H]1CC[C@]2(CO)CC[C@]3(C)[C@H](CC[C@@H]4[C@@]5(C)[C@H](O)C[C@@H](O)C(C)(C)[C@@H]5CC[C@]43C)[C@@H]12,< 50%
9,C=C(C)[C@@H]1CC[C@]2(COC(=O)c3cccc4ccccc34)CC[C@]3(C)[C@H](CC[C@@H]4[C@@]5(C)CC[C@H](O)C(C)(C)[C@@H]5CC[C@]43C)[C@@H]12,< 50%
10,C=C(C)[C@@H]1CC[C@]2(COC(=O)c3ccc(Br)cc3)CC[C@]3(C)[C@H](CC[C@@H]4[C@@]5(C)CC[C@H](O)C(C)(C)[C@@H]5CC[C@]43C)[C@@H]12,< 50%
11,C=C(CCl)[C@@H]1CC[C@]2(C)CC[C@]3(C)[C@H](C[C@@H](OC(C)=O)[C@@H]4[C@@]5(C)CCC(=O)C(C)(C)[C@@H]5CC[C@]43C)[C@@H]12,< 50%
12,C=C(C)[C@@H]1CC[C@]2(C)CC[C@]3(C)[C@@H](C[C@@H](O)[C@@H]4[C@@]5(C)CCC(=O)C(C)(C)[C@@H]5CC[C@]43C)[C@@H]12 [RIGIDENOL],< 50%
13,C=C(C)[C@@H]1CC[C@]2(COC(=O)c3cccc4ccccc34)CC[C@]3(C)[C@H](CC[C@@H]4[C@@]5(C)CC[C@H](OC(=O)c6cccc7ccccc67)C(C)(C)[C@@H]5CC[C@]43C)[C@@H]12,< 50%
14,C=C(CO)[C@@H]1CC[C@]2(C)CC[C@]3(C)[C@H](CC[C@@H]4[C@@]5(C)CCC(=O)C(C)(C)[C@@H]5CC[C@]43C)[C@@H]12,< 50%
15,C=C(C)[C@@H]1CC[C@]2(COC(C)=O)CC[C@]3(C)[C@H](CC[C@@H]4[C@@]5(C)CC[C@H](O)C(C)(C)[C@@H]5CC[C@]43C)[C@@H]12,< 50%
16,C=C(C)[C@@H]1CC[C@]2(COC(=O)c3ccccc3)CC[C@]3(C)[C@H](CC[C@@H]4[C@@]5(C)CC[C@H](O)C(C)(C)[C@@H]5CC[C@]43C)[C@@H]12,< 50%

row,Compound,inhibition at 10 µM
1,CC(=O)OC[C@]12CC[C@@H](C(C)(O)CO)[C@@H]1[C@H]1CC[C@@H]3[C@@]4(C)CC[C@H](O)C(C)(C)[C@@H]4CC[C@@]3(C)[C@]1(C)CC2 (some centres not stated),< 50%
2,C=C(C)[C@@H]1CC[C@]2(C)CC[C@]3(C)[C@H](C[C@@H](OC(C)=O)[C@@H]4[C@@]5(C)CCC(=O)C(C)(C)[C@@H]5CC[C@]43C)[C@@H]12,< 50%
3,C=C(C)[C@@H]1CC[C@]2(COC(=O)CCCCCCC)CC[C@]3(C)[C@H](CC[C@@H]4[C@@]5(C)CC[C@H](O)C(C)(C)[C@@H]5CC[C@]43C)[C@@H]12,< 50%
4,C=C(C)[C@@H]1CC[C@]2(CO[Si](C)(C)C(C)(C)C)CC[C@]3(C)[C@H](CC[C@@H]4[C@@]5(C)CC[C@H](O)C(C)(C)[C@@H]5CC[C@]43C)[C@@H]12,< 50%
5,C=C(COC(C)=O)[C@@H]1CC[C@]2(C)CC[C@]3(C)[C@H](CC[C@@H]4[C@@]5(C)CC[C@H](OC(C)=O)C(C)(C)[C@@H]5CC[C@]43C)[C@@H]12,< 50%
6,C=C(C)[C@@H]1CC[C@]2(CO)CC[C@]3(C)[C@H](C[C@@H](O)[C@@H]4[C@@]5(C)CCC(=O)C(C)(C)[C@@H]5CC[C@]43C)[C@@H]12,< 50%
7,C=C(C)[C@@H]1CC[C@]2(COC(=O)C(C)(C)C)CC[C@]3(C)[C@H](CC[C@@H]4[C@@]5(C)CC[C@H](O)C(C)(C)[C@@H]5CC[C@]43C)[C@@H]12,< 50%
8,CC(=O)OC[C@]12CC[C@@H]([C@]3(C)CO3)[C@@H]1[C@H]1CC[C@@H]3[C@@]4(C)CC[C@H](O)C(C)(C)[C@@H]4CC[C@@]3(C)[C@]1(C)CC2,< 50%
9,C=C(C)[C@@H]1CC[C@]2(CO)CC[C@]3(C)[C@H](CC[C@@H]4[C@@]5(C)CC[C@H](OC(=O)/C=C/c6ccc(O)c(O)c6)C(C)(C)[C@@H]5CC[C@]43C)[C@@H]12,< 50%
10,C=C(C)[C@@H]1CC[C@]2(COC(C)=O)CC[C@]3(C)[C@H](CC[C@@H]4[C@@]5(C)CC[C@H](OC(C)=O)C(C)(C)[C@@H]5CC[C@]43C)[C@@H]12 [BETULIN DIACETATE],< 50%
11,CC(C)[C@@H]1CC[C@]2(C)CC[C@]3(C)[C@@H](CC[C@@H]4[C@@]5(C)CC[C@H](OC(=O)/C=C/c6ccc(O)c(O)c6)C(C)(C)[C@@H]5CC[C@]43C)[C@@H]12,< 50%
12,C=C(C)[C@@H]1CC[C@]2(C)CC[C@]3(C)[C@H](CC[C@@H]4[C@@]5(C)CC(Br)C(=O)C(C)(C)[C@@H]5CC[C@]43C)[C@@H]12 (some centres not stated),< 50%
13,C=C(C)[C@@H]1CC[C@]2(C)CC[C@]3(C)[C@H](CC[C@@H]4[C@@]5(C)[C@H](O)C[C@H](O)C(C)(C)[C@@H]5CC[C@]43C)[C@@H]12,< 50%
14,C=C(C)[C@@H]1CC[C@]2(C)CC[C@]3(C)[C@H](C[C@@H](O)[C@@H]4[C@@]5(C)CC[C@@H](O)C(C)(C)[C@@H]5CC[C@]43C)[C@@H]12,< 50%
15,C=C(CO)[C@@H]1CC[C@]2(C)CC[C@]3(C)[C@H](CC[C@@H]4[C@@]5(C)CC[C@H](O)C(C)(C)[C@@H]5CC[C@]43C)[C@@H]12,< 50%
16,C=C(C)[C@@H]1CC[C@]2(C)CC[C@]3(C)[C@@H](CC[C@@H]4[C@@]5(C)C=CC(=O)C(C)(C)[C@@H]5CC[C@]43C)[C@@H]12 [GLOCHIDONE],< 50%
